The source of these data is patent US20230047208A1, “RNA Splicing Modulation” (The General Hospital Corporation, priority 2020, published 2023).

The test system of one data set is CFTR protein. In words: CFTR western blot, mature CFTR protein in Flp-In-293 cells stably expressing c.2988G>A. The class given is cell-based, human. Conditions: Flp-In-293 c.2988G>A stable cells, 60 μM, 5 days. As to the method: For CFTR WB, 40 μg of protein lysate was separated on 7.5% Criterion TGX protein gel (BioRad) and transferred to a PVDF membrane using a Trans-Blot Turbo Transfer System (BioRad). After blocking in 5% non-fat dry milk (BioRad), the membrane was probed with mouse monoclonal anti-CFTR antibody (1:5000 in PBST) that recognizes amino acids 1204-1211 (596, CFFT, North Carolina Chapel Hill). Rabbit monoclonal anti-Na+K+ ATPase (Abcam) (1:50,000 in PBST) was used as a loading control. Secondary antibodies were anti-mouse (1:150,000 GE Healthcare) and anti-rabbit (1:100,000 GE Healthcare), respectively. Blots were exposed on film using ECL Primer Western Blotting Detection Reagent (GE Healthcare)
WT CFTR-EMG-i14-i18, CFTR-EMG-i14-i18 harboring c.2988G>A, Flp-In-CFBE, and Flp-In-293 cells stably expressing WT-EMG and c.2988G>A EMG were generated. Both Flpin-293 and Flp-In-CFBE cells lack endogenous CFTR expression (CFBE41o-) and contain a single Flp recombinase target site. Co-transfection of EMG plasmid with pOG44 (a plasmid encoding Flp recombinase) allowed for genomic integration at the FRT site. Hygromycin was used for stable cell selection.
CFTR protein levels was assessed in Flp-In-293 cells stably expressing the c.2988G>A splicing variant after treatment with Compound (I) for 5 days. […]
A general note: Immunoblotting shows a protein as a band on a membrane.

Data set [1] is described as follows: Tolerability and weight assessment of TgFD9 mice. The class given is in vivo. Particulars: oral gavage once daily for 7 days, 10, 30, 60 or 100 mg/kg. The protocol: FIGS. 7C-E show the relative expression of full-length (FL) and Δ20 ELP1 mRNA (left graphs), and ELP1 protein quantification (right graphs) in kidney (FIG. 7C), heart (FIG. 7D) and skin (FIG. 7E) after oral doses of Compound (I) ranging from 10 to 100 mg/kg in adult transgenic TgFD9 mouse (n=4-6 mice in each treatment group). Comparisons were done within the same group, against the vehicle-treated mice. […] The levels of compound were measured using mass spectrometry. In the figure, *p<0.05; **p<0.01; ***p<0.001.
Compound (I) was evaluated in vivo to determine whether splicing correction can lead to a concomitant increase in ELP1 protein. In brief, TgFD9 transgenic mice, which carry the human ELP1 gene with a Exon 20 splice mutation, were treated by oral gavage once daily for 7 days with Compound (I) as a suspension in 0.5% HPMC, 0.1% Tween 80 at a dose of 10, 30, 60 or 100 mg/kg. The mice used for this study were housed in an animal facility, provided with access to food and water ad libitum, and maintained on a 12-hour light/dark cycle. For routine genotyping, genomic DNA was prepared from tail biopsies and PCR was carried out to detect the TgFD9 transgene using the following primers—forward 5′-[…]-3′; reverse, 5′-[…]-3′. Mice were sacrificed 1 hour after the last dose.
The level of splicing correction correlated with Compound (I) tissue distribution (FIGS. 7F-7G).

For the next data set, the system named is MLH1 c.1989 G>A, exon 17. Nature of the data set: MLH1 c.1989 G>A minigene exon 17 splicing in transfected cell lines. The format is cell-based. Conditions: 60 μM, 24 hours. An excerpt:
FIGS. 4C-4F Upper row: The sequences at the 5′ splice site of Exon X in patient cells and minigene constructs are shown (FIGS. 4C-4F). The sequences around the 5′ splice site of Exon X are shown in LOGO plots, with the closely matched CNN motifs indicated beneath the plots. […] Middle row: RT-PCR experiments validated treatment responses in patient cell lines carrying specific splice site mutations. The upper bands indicate the isoform in which the middle Exon X is included while the lower bands indicate the isoform in which the middle Exon X is skipped. Each set of gels is one of the triplicates used to generate the bar plots beneath. […] The statistical significance, as shown in FIGS. 4C-4F, was determined via two-tailed, unpaired Student's test: *p<0.05; **p<0.01; ***p<0.001.
In another example from Table 18, a minigene encompassing MLH1 exons 16 to 18 and flanking exon 17 intronic sequences, with the c.1989 G>A mutation was prepared. This mutation was predicted by SpliceA1 to cause skipping of exon 17 in the MLH1 gene. […] The c.1989 G>A mutation in MLH1 is associated with hereditary nonpolyposis colorectal cancer (HNPCC) or Lynch syndrome (MIM #120435). Individuals with MLH1 mutations also have an increased risk of cancers of the endometrium, ovaries, stomach, small intestine, liver, gallbladder duct, upper urinary tract, and brain^14-16,65. […]

SMILES strings stand for the structures.

As for `Clc1nc(NCc2ccncc2)c2cc[nH]c2n1` [Compound (I), 2-chloro-N-(pyridin-4-ylmethyl)-7H-pyrrolo[2,3-d]pyrimidin-4-amine], the “amount of mature CFTR protein” value in the data set on CFTR protein was ~20 % of WT. Moreover, the “tolerability, weight loss, adverse effects” value in data set [1] was “well tolerated with no weight loss or adverse effects observed”. Moreover, in the data set with MLH1 c.1989 G>A, exon 17, the “exon 17 splicing” value is listed as “significantly promoted exon 17 inclusion”.
